{
  "source": "patent US20180280429A1",
  "about": "“APPLICATION OF NITRATE IN PREPARATION OF DRUG PREVENTING OR TREATING BONE METABOLIC DISEASES” (Capital Medical University, priority 2015, published 2018)",
  "key": {"[1]": {"assay": "Measurement of nitrate and nitrite in serum (Griess)", "format": "in vivo, SD rats", "conditions": "after drinking water containing nitrate for 3 months, *p<0.05", "text": "(§1) 12-week-old female SD rats were selected for the osteoporosis model and bilateral ovaries of them were removed. The experiment objects were divided into 3 groups: the sham operation group (Sham), the ovariectomized group (OVX) and the nitrate group (Nitrate), and there were 10 rats in each group. In the nitrate group, drinking water with sodium nitrate was given on the second day after ovariectomy (ovarianectomy) at a concentration of 2.5 mmol/L, and the daily intake of nitrate in each rat was about 0.5 mmol/Kg bw, the water with nitrate was given for 12 weeks, while normal drinking water was given in the other groups.\n(1) Preparation of the standard: the double dilution of the original standard was 200 μM-3.125 μM\n(2) Determination of Nitrite Concentration:\n1) Adding 50 μl reaction buffer to blank holes;\n2) Adding 50 μl sample or standard to reaction buffer;\n3) Adding 50 μl of reaction buffer to each hole in sequence;\n4) Adding 50 μl of Griess Reagent I in each hole in sequence;\n5) Adding 50 μl of Griess Reagent II to each hole and incubating at room temperature for 10 minutes;\n6) Reading the OD value at 540 nm with a microplate reader and the value at 690 nm is used as calibration.\n(3) Determination of Nitrate Concentration: […]\n7) Reading the OD value at 540 nm with a microplate reader and the value at 690 nm is used as calibration."}, "TGF-β1, IFN-γ and IL-17": {"tested_on": "TGF-β1, IFN-γ and IL-17", "assay": "Detection of TGF-β1, IFN-γ and IL-17 in serum", "format": "in vivo, SD rats", "conditions": "OVX rats, drinking water with nitrate, 12 weeks, vs OVX group, *P<0.05", "text": "as §1\n(2) Detection of TGF-β1, IFN-γ and IL-17\n1) The serum is diluted for 10 times, and 0.1 ml of which is placed into the 96-well plate of the kit. At the same time, the standard in the kit is taken and diluted in proportion, and then placed into the 96-well plate and incubated at 37° C./at room temperature for 30 minutes/1 hour according to the instructions. The obtained object is washed with a buffer for 3 times and each time lasts for 3 minutes.\n2) 100 μl enzyme-labeled antibody is added for incubating for 15 minutes/30 minutes at 37° C./at room temperature. The obtained object is washed for 3 times and each time lasts for 3 minutes.\n3) 100 μl substrate solution is added and then incubated for 15 minutes at room temperature/37° C.\n4) 100 μl stop solution is added to stop the reaction for 5 minutes.\n5) The readings of the enzyme labeled instrument at 450 nm is obtained."}, "[2]": {"tested_on": "regulatory T lymphocytes (Treg)", "assay": "Detection of the peripheral blood regulatory T cell ratio by flow cytometry", "format": "in vivo, SD rats", "conditions": "OVX rats, drinking water with nitrate, 12 weeks, vs OVX group, *P<0.05", "text": "as §1\n(1) The Detection of the Peripheral Blood Regulatory T Cell Ratio in the Rats\n1) Blood was collected from the abdominal aorta of the rats in each group and the serum was collected.\n2) 100 μl 0.1% BSA is added for resuspending, and then Anti-CD4, Anti-CD25 are added for incubating on ice for 30 minutes while avoiding light.\n3) The obtained mixture is centrifuged at 1500 rpm for 10 minutes, and then the supernatant is removed and 0.1% BSA is added for resuspending.\n4) The membrane-permeation solution is added on 4° C., 10 minutes.\n5) The obtained mixture is centrifuged at 1500 rpm for 10 minutes, and then the supernatant is removed and 0.1% BSA is added for resuspending.\n6) Anti-Foxp3 is added for incubating on ice for 30 minutes while avoiding light. […]"}, "ovariectomized rats [3]": {"tested_on": "ovariectomized rats", "assay": "Tibia weight, body weight and adverse reactions in ovariectomized rats", "format": "in vivo, SD rats", "conditions": "OVX rats", "text": "as §1"}, "[4]": {"tested_on": "BMMSCs of ovariectomized rats", "assay": "BMMSC proliferation by the CCK8 method (cells cultured from treated rats)", "format": "cell-based, SD rats", "conditions": "third generation cells from OVX rats given drinking water with nitrate, vs OVX group, *P<0.05", "text": "as §1\n(§2) After necropsy, the skin of the hind limbs was removed. After exposing the femur and tibia, the bone marrow was extracted with a 1 mL syringe to flush out from the stump. Cells were cultured in the α-MEM complete medium (containing 10% of bovine serum), and subcultured after the cells were clonally grown until 80% of the fusion.\n100 μl of cell suspension was inoculated in the 96-well plate, and the plate was pre-cultured in the incubator for 24 hours (under the condition of 37° C., 5% CO2). Then the plate was incubated in an incubator for 72 hours. 100 μl of culture medium was added to each well and 10 μl of CCK-8 solution was added to each hole. After 2 hours, the absorbance at 450 nm was measured with an enzyme labeled instrument."}, "ovariectomized rats [5]": {"tested_on": "ovariectomized rats", "assay": "Bone density detection by Micro-CT of the upper tibia in the ovariectomized rat osteoporosis model", "format": "in vivo, SD rats", "conditions": "OVX rats, 12 weeks, vs OVX group"}, "[6]": {"tested_on": "BMMSCs of ovariectomized rats", "assay": "BMMSC osteogenic differentiation, alizarin red staining (cells cultured from treated rats)", "format": "cell-based, SD rats", "conditions": "BMMSC from OVX rats given drinking water with nitrate, after 21 days of osteogenesis induction, vs OVX group, *P<0.05", "text": "as §1, §2\nPreparation of osteoinductive medium: adding 2 mmol/L glutamine, 100 U/ml penicillin and 100 μg/ml streptomycin, 10 mM β-glycerophosphate sodium, and 10 nM Dexamethasone and 50 mg/L vitamin C to 10% fetal bovine serum α-MEM medium. […]"}, "[7]": {"conditions": "sodium nitrate 2.5 mmol/L in drinking water, *P<0.05"}},
  "data": [
    {"smiles": "O=[N+]([O-])[O-].[Na+]", "note": "[nitrate, sodium nitrate]", "values": [
      {"measurement": "content of nitrate in serum (FIG. 3A)", "setting": "[1]", "result": "significantly increased"},
      {"measurement": "content of nitrite in serum (FIG. 3B)", "setting": "[1]", "result": "significantly increased"},
      {"measurement": "level of IFN-γ in serum (FIG. 4C)", "setting": "TGF-β1, IFN-γ and IL-17", "result": "alleviate the up-regulation"},
      {"measurement": "level of IL-17 in serum (FIG. 4D)", "setting": "TGF-β1, IFN-γ and IL-17", "result": "alleviate the up-regulation"},
      {"measurement": "level of TGF-β1 in serum (FIG. 4B)", "setting": "TGF-β1, IFN-γ and IL-17", "result": "alleviate the down-regulation"},
      {"measurement": "proportion of regulatory T lymphocytes in peripheral blood CD4 positive cells (FIG. 4A)", "setting": "[2]", "result": "reduce the decline"},
      {"measurement": "adverse reactions", "setting": "ovariectomized rats [3]; nitrate in drinking water, at the time of preservation of bone mass", "result": "no obvious adverse reactions"},
      {"measurement": "body weight (weight gain) (FIG. 2B)", "setting": "ovariectomized rats [3]; sodium nitrate 2.5 mmol/L in drinking water, 12 weeks", "result": "no significant effect on the weight gain"},
      {"measurement": "tibia weight (FIG. 2A)", "setting": "ovariectomized rats [3]; sodium nitrate 2.5 mmol/L in drinking water, 12 weeks, vs OVX group", "result": "relieve the decrease of tibia weight"},
      {"measurement": "proliferation of BMMSCs, OD450 value by CCK8 (FIG. 5A)", "setting": "[4]", "result": "significantly reduced the proliferation"},
      {"measurement": "loss of tibial bone mass (MicroCT of the upper tibia, FIG. 1B)", "setting": "ovariectomized rats [5]; sodium nitrate 2.5 mmol/L in drinking water (about 0.5 mmol/Kg bw daily)", "result": "significantly relieved"},
      {"measurement": "bone density (BMD), MicroCT quantitative analysis (FIG. 1C)", "setting": "ovariectomized rats [5]; [7]", "result": "partially recover"},
      {"measurement": "bone volume fraction (BV/TV), MicroCT quantitative analysis (FIG. 1D)", "setting": "ovariectomized rats [5]; [7]", "result": "partially recover"},
      {"measurement": "trabecular number (Tb.N), MicroCT quantitative analysis (FIG. 1F)", "setting": "ovariectomized rats [5]; [7]", "result": "partially recover"},
      {"measurement": "trabecular thickness (Tb.Th), MicroCT quantitative analysis (FIG. 1E)", "setting": "ovariectomized rats [5]; [7]", "result": "partially recover"},
      {"measurement": "osteogenic differentiation of BMMSCs, alizarin red staining and quantification (FIG. 5B)", "setting": "[6]", "result": "significantly enhanced osteogenic differentiation"}
    ]}
  ]
}
